Results from patent US20120172228A1, “ALCOHOL ALKOXYLATES AS ADJUVANTS FOR AGROCHEMICAL FORMULATIONS” (SYNGENTA CROP PROTECTION, LLC, priority 2009, published 2012).

Experiments:
Assay type in all cases: in vivo
French bean = experiment: Phytotoxicity of adjuvant to French bean; conditions: 7 days after spray application
Description: (§1) The plants were sprayed with water at a rate of approximately 500 litres per hectare, the water containing 0.1% v/v or 0.2% v/v adjuvant. The plants were assessed for phytotoxicity 7 days after spray application. Each experiment was replicated twice and the results averaged. In the control experiment the plants were sprayed with water and no phytotoxicity was observed.

Chinese cabbage = experiment: Phytotoxicity of adjuvant to Chinese cabbage; conditions: 7 days after spray application
Description: as §1

soybean = experiment: Phytotoxicity of adjuvant to soybean; conditions: 7 days after spray application
Description: as §1

[1] = test system: digitaria sanguinalis (DIGSA); experiment: Adjuvant with herbicide mesotrione on DIGSA
[2] = test system: brachiaria decumbens (BRADE), digitaria sanguinalis (DIGSA), polygonum convolvulus (POLCO), amaranthus retroflexus (AMARE); experiment: Adjuvant with herbicide mesotrione, mean across four weed species (Example 28); conditions: mesotrione 45 or 90 g/ha; Sample 28 0.2%, Tween 20 0.5%; 7, 14 and 21 days
Description: (§2) In this example Sample 13 from Table 1 was compared to the oil adjuvant blend Turbocharge™. The herbicide fomesafen was applied to the weed species xanthium strumarium (XANST), setaria viridis (SETVI), abutilon theophrasti (ABUTH), and chenopodium album (CHEAL) at rates of 60 or 120 grams per hectare, using a laboratory track sprayer. Each experiment was replicated four times and the percentage damage to the weeds was assessed visually at time periods of 7, 14 and 21 days after application. Each adjuvant was applied at a rate of 0.5% of the volume of the spray water. Four effects were evaluated: pesticide rate (2 levels), adjuvant type (two levels), weed species (four levels) and days after application (three levels). […] The effect of each adjuvant was pulled out from the model and the least significant differences evaluated using a Student's t method. […]
In this example the rate response of a non-ethoxylated butylene oxide adjuvant was measured at an adjuvant rate of 0.2% by volume in order to display the excellent performance of this adjuvant compared to the commercial adjuvant' Tween 20, which was used at a rate of 0.5% by volume. […] In each case the experiments were replicated three times and the percentage damage to the weeds was assessed visually at time periods of 7, 14 and 21 days after application. […]

[3] = test system: polygonum convolvulus (POLCO); experiment: Adjuvant with herbicide mesotrione on POLCO
[4] = test system: amaranthus tuberculatus (AMATU); experiment: Adjuvant with herbicide mesotrione on AMATU
[5] = test system: brachiaria platyphyla (BRAPL), digitaria sanguinalis (DIGSA), polygonum convolvulus (POLCO), amaranthus tuberculatus (AMATU); experiment: Adjuvant with herbicide mesotrione, track sprayer, mean across four weed species
[6] = test system: brachiaria platyphyla (BRAPL); experiment: Adjuvant with herbicide mesotrione on BRAPL
[7] = test system: brachiaria platyphyla (BRAPL), digitaria sanguinalis (DIGSA), polygonum convolvulus (POLCO); experiment: Adjuvant with herbicide mesotrione, mean across three weed species (Example 20); conditions: mesotrione 30, 60 or 90 g/ha; Sample 13 0.2%, Tween 20 0.5%; 14 and 21 days
Description: as §2, with “levels). A standard simple linear model was constructed to judge the significance of these effects.” for “levels).”
In this example the rate response of the butylene oxide adjuvant 13 of Table 1 was measured to display the excellent performance of this adjuvant compared to the commercial adjuvant Tween™20, used at a rate of 0.5% by volume. […] In each case the experiments were replicated four times and the percentage damage to the weeds was assessed visually at time periods of 14 and 21 days after application.

[8] = mesotrione 30, 60 or 90 g/ha, Sample 13 0.2%, Tween 20 0.5%, 14 and 21 days
[9] = mesotrione 45 and 90 g/ha, adjuvants 0.5% of spray water, 7, 14 and 21 days after application
[10] = mesotrione 45 or 90 g/ha, Sample 27 0.2%, Tween 20 0.5%, 7, 14 and 21 days

CCCCCCCC/C=C\CCCCCCCCOCCOCCOCCOCCOCCOCCOCCOCCOCCOCCO [Genapol O100]
French bean % phytotoxicity (French bean; 0.1% v/v adjuvant in water): 5%
French bean % phytotoxicity (French bean; 0.2% v/v adjuvant in water): 10%
Chinese cabbage % phytotoxicity (Chinese cabbage; 0.1% v/v adjuvant in water): 2%
Chinese cabbage % phytotoxicity (Chinese cabbage; 0.2% v/v adjuvant in water): 10%
Soybean % phytotoxicity (soybean; 0.1% v/v adjuvant in water): 3.5%
Soybean % phytotoxicity (soybean; 0.2% v/v adjuvant in water): 15%

Tween 20
mean efficacy (percentage damage to the weeds), DIGSA [1, 8]: 45.55; A %
mean efficacy (percentage damage to the weeds), DIGSA [1, 9]: 48.33; B %
mean efficacy (percentage damage to the weeds), DIGSA [1, 10]: 41.67; A %
Mean kill (%) [2]: 65.8%
mean efficacy (percentage damage to the weeds), POLCO [3, 8]: 32.77; B %
mean efficacy (percentage damage to the weeds), POLCO [3, 9]: 95.44; A %
mean efficacy (percentage damage to the weeds), POLCO [3, 10]: 73.61; A %
mean efficacy (percentage damage to the weeds), AMATU [4, 9]: 66.94; AB %
mean efficacy (percentage damage to the weeds), AMATU [4, 10]: 69.86; A %
mean efficacy (percentage damage to the weeds), All weeds [5, 9]: 63.861; B %
mean efficacy (percentage damage to the weeds), All weeds [5, 10]: 54.54; A %
mean efficacy (percentage damage to the weeds), BRAPL [6, 8]: 26.11; B %
mean efficacy (percentage damage to the weeds), BRAPL [6, 9]: 44.72; B %
mean efficacy (percentage damage to the weeds), BRAPL [6, 10]: 33.06; B %
mean efficacy (percentage damage to the weeds), All weeds [7]: 26.11; B %
